Measurements published in US20200247808A1, “Heterocyclic Tec-Family Kinase Inhibitors” (GB005, Inc., priority 2015, published 2020).
pEC50, pIC50: −log10 of the molar value. Like-named read-outs stand apart in the source and are kept apart here.

Legend:
splenocytes = assay: Splenic cell proliferation assay (anti-IgM stimulated, Cell Titer-Glo); format: cell-based, mouse (CD1); settings: Splenocyte; mouse splenocytes, 2.5 μg/ml anti-IgM F(ab')2, 72 h; read-out: Spleen cell EC50
Procedure: Proliferation of splenocytes in response to anti-IgM can be blocked by inhibition of BTK. Splenocytes were obtained from 6 week old male CD1 mice (Charles River Laboratories Inc.). Mouse spleens were manually disrupted in PBS and filtered using a 70um cell strainer followed by ammonium chloride red blood cell lysis. Cells were washed, resuspended in Splenocyte Medium (HyClone RPMI supplemented with 10% heat-inactivated FBS, 0.5X non-essential amino acids, 10 mM HEPES, 50 μM beta mercaptoethanol) and incubated at 37° C., 5% CO2 for 2h to remove adherent cells. Suspension cells were seeded in 96 well plates at 50,000 cells per well and incubated at 37° C., 5% CO2 for 1h. Splenocytes were pre-treated in triplicate with 10,000 nM curves of Formula 1 compounds for 1h, followed by stimulation of cell proliferation with 2.5 μg/ml anti-IgM
F(ab′)2 (Jackson ImmunoResearch) for 72 h. Cell proliferation was measured by Cell Titer-Glo Luminescent Assay (Promega). EC50 values (50% proliferation in the presence of compound as compared to vehicle treated controls) were calculated from dose response compound curves using GraphPad Prism Software.

human BTK = molecular target: T1, human BTK (Homo sapiens, UniProt Q06187); assay: BTK kinase inhibition, KinaseProfiler radiometric protein kinase assay (Eurofins); format: biochemical
T1 construct: purchased Eurofins Pharma Discovery Services UK Limited (contract assay, KinaseProfiler)
Procedure: In vitro potency of selected compound was defined against human BTK, EGFR, and ErbB2 kinases using Kinase Profiler radiometric protein kinase assays performed at Eurofins Pharma Discovery Services UK Limited.
Each kinase is diluted in buffer and all compounds were prepared to 50x final assay concentration in 100% DMSO. This working stock of the compound was added to the assay well as the first component in the reaction, followed by the remaining components as detailed in the assay protocol listed above. The reaction was initiated by the addition of the MgATP mix. […] (specific activity approx. 500 cpm/pmol, concentration as required) and variable test article concentrations. […] The reaction was stopped by the addition of 3% phosphoric acid solution. 10 μL of the reaction is then spotted onto a P30 filtermat and washed three times for 5 minutes in 75 mM phosphoric acid and once in methanol prior to drying and scintillation counting. In addition positive control wells contain all components of the reaction, except the compound of interest; however, DMSO (at a final concentration of 2%) were included in these wells to control for solvent effects as well as blank wells contain all components of the reaction, with a reference inhibitor replacing the compound of interest. This abolishes kinase activity and establishes the base-line (0% kinase activity remaining). The potency of each compound was reported by estimating the EC50.

[1] = test system: TMD-8 human activated B cell diffuse large B cell lymphoma cells; assay: TMD-8 survival assay (Cell Titer-Glo); format: cell-based; settings: TMD8, TMD-8 cells, 72 h
Procedure: TMD-8 human activated B cell diffuse large B cell lymphoma cells were seeded in 96-well plates at a density of 20,000 cells/well in HyClone RPMI supplemented with 10% FBS (Fisher)/1% Penicillin/Streptomycin (HyClone) and incubated at 37° C., 5% CO2. Cells were treated in triplicate with 1,000 nM or 100 nM curves of compounds for 72h. Cell survival was measured by Cell Titer-Glo Luminescent Assay (Promega). EC50 values (50% proliferation in the presence of compound as compared to vehicle treated controls) were calculated from dose response compound curves using GraphPad Prism Software.

[2] = Formation of glutathione adducts (GSH reactivity, HPLC-UV); format: in vitro ADME; settings: 10 mM GSH, 20 micromolar test article, pH 7.4, 37° C.
Procedure: Generation of non-specific thiol adducts can be measured by assaying reactivity of compounds with GSH. Formation of GSH adducts was measured by incubating GSH (10 mM) in 100 mM Phosphate Buffer pH 7.4 with test article at 20 micromolar final concentration. Briefly, 600 microliters of phosphate buffer pH 7.4 was added in a glass vial with 200 microliters of 100 micromolar test article in DMSO. Samples were warmed at 37° C. for 10 minutes and the reaction was initiated by the addition of 200 microliters of 50 mM reduced GSH in phosphate buffer pH 7.4 and incubated at 37° C. At various time points (0.5 min, 5 min, 15 min, 30 min, 60 min, 120 min and 180 min) 50 microliter aliquots were placed into an injection vial equipped with an insert and mixed with 50 microliters of 1% formic acid in 99% Methanol. Vials were loaded onto the HPLC injection tray and each sample was injected onto a C18 column (ACE 3 C18, 4.6×50 mm column) and both the parent and product were monitored by UV absorbance at 254 nm on an Agilent Technologies 1100 series HPLC. Peaks were integrated and the percentage of product present calculated as the percent of the total peak area on the parent and product at 60 minutes.

[3] = Mouse plasma pharmacokinetics; format: in vivo, mouse (CD-1); settings: male, CD-1, mouse, mice
Procedure: Plasma pharmacokinetic studies were conducted in CD1 mice to compare the plasma exposure following oral and intravenous administration of the free-base form of each compound to mice and to calculate bioavailability. Male CD-1 mice (25-30 g on delivery; Charles River) were used for mouse PK studies. The mice were housed 3 per cage in a room under controlled conditions of temperature ([…]) and humidity (40-70%), with a 12 h dark/light cycle. The animals were acclimated for a minimum of 3 days prior to use and received standard rodent chow (Charles River) and municipal tap water ad libitum. Nine animals were used per study, they were dosed PO or IV and bled from the mandibular vein, 2 to 3 times per animal at the following time points; pre dose, 15 and 30 min, 1, 2, 3, 5, 7 and 24 h (0.1 mL whole blood /time point; composite PK). Blood was collected into microvette K3E tubes ([…]) at RT and then centrifuged at 5,000 RPM for 2 min at 4° C. in order to separate plasma. Isolated plasma (0.015 mL/time point) was pipetted into 96 well plates (Canadian Life Science) which were stored at minus 20° C. until analysis (2 duplicate plates per study).
Concentrations of compound in rodent plasma samples were determined by LC-MS-MS. Two standard curves containing 8 points each were prepared by spiking in methanol or plasma with a solution containing the test article at a defined concentration. The range of final compound concentration in the standard curve was 0 to 1 μg/mL. Three sets of quality control (QC) samples in plasma at low, medium and high concentration within the standard curve range were also prepared. For analysis, the compound was extracted using protein precipitation extraction procedure. Briefly, a three-fold volume of methanol containing an internal standard was added to the plasma and standard curve solution samples and then incubated at 4° C. for 5 minutes. The plates were centrifuged for 30 minutes at 4° C. at 4000 rpm and the resulting supernatant was transferred to a 96-well propylene plates and sealed with cover to avoid sample evaporation. Ten μL aliquots of extracted samples were injected using a 96-well plate autosampler held at 4° C. onto a ACE C18 50×4.6 mm, 3 um HPLC column held at 30° C. Plasma derived parent compound was eluted using the following conditions: pump flow rate was set at 1 mL/min for a five minutes chromatographic method using a 3 min gradient elution from 20% solvent A (0.1% formic acid in water) and 80% solvent B (0.1% Formic Acid in Methanol) to 10% solvent A and 90% solvent B. The method was followed by 1 min column wash at 95% solvent B and 1 min column re-equilibration back to 80% solvent B. Under these conditions the compound was eluted after 1.8 minutes. For LC-MS-MS compound detection, the curtain gas was set at 10, collision gas was set at 8, ion spray voltage was set at 4500, temperature was set at 500, ion source gas 1 was set at 40 and ion source gas 2 was set at 60. Using a positive ionization mode, the MRM transition monitored was set at […]. Under these conditions, standard curves were linear up to 2000 ng/mL, the lower limit of quantification was generally at 10 ng/mL.
The area under the curve (AUCtot and AUClast), the maximum plasma concentration (Cmax) and time (Tmax), and terminal half life (T1/2), clearance and volume of distribution were calculated by regression analysis using Kinetica version 5.0 (Thermo Fisher Scientific) using a Non-Compartmental Extravascular/IV Bolus analysis model.

T1 sequence (Q06187 whole entry): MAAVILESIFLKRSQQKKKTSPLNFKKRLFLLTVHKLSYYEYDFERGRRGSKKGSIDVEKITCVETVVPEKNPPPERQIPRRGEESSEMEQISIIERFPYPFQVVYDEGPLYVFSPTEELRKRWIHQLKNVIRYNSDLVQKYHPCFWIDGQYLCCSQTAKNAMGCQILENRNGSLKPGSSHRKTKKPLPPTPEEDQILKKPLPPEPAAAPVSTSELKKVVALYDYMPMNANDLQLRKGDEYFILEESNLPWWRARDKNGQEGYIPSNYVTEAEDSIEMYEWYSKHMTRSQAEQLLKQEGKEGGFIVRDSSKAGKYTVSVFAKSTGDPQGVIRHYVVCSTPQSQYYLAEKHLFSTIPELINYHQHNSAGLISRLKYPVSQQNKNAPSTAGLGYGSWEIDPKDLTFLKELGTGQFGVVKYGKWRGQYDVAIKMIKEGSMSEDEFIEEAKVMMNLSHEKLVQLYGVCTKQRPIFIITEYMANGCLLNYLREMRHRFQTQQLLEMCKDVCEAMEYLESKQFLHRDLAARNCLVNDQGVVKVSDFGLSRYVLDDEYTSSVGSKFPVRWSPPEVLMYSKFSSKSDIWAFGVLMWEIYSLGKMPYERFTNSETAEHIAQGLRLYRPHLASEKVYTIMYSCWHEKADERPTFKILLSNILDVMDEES

Row | pIC50 (human BTK) | GSH Reactivity GSH Conjugate at 60 minutes [2] | AUC ([3]; intravenous 3 mg/kg, free base, read-out: Intravenous AUC) [ng·h/mL] | bioavailability ([3]; oral 10 mg/kg vs intravenous 3 mg/kg) [%] | Cmax ([3]; oral 10 mg/kg, free base) [ng/mL] | AUC ([3]; oral 10 mg/kg, free base, read-out: Oral AUC) [ng·h/mL] | Structure (SMILES) | pEC50 (splenocytes) | pEC50 [1]
1 | 8.00 | 12.6 % of total Peaks | – | – | – | – | C=CC(=O)N[C@H]1C[C@@H](n2nc(-c3ccc(Oc4ccc(F)cc4F)cc3)c3c(N)ncnc32)C1 [Compound 3] | 9.05 | 8.19
2 | 9.00 | 5.9 % of total Peaks | – | – | – | – | CC#CC(=O)N[C@H]1C[C@@H](n2nc(-c3ccc(Oc4ccccc4)cc3F)c3c(N)ncnc32)C1 [Compound 7] | 9.40 | 8.82
3 | – | 31.7 % of total Peaks | 1070 | 9.8 | 219 | 349 | C=CC(=O)N1CCC[C@@H](n2nc(-c3ccc(Oc4ccccc4)cc3)c3c(N)ncnc32)C1 [Reference, 1-((R)-3-(4-amino-3-(4-phenoxyphenyl)-1H-pyrazolo[3,4-d]pyrimidin-1-yl)piperidin-1-yl)prop-2-en-1-one, reference compound] | 9.40 | 8.70

The next lines start with the compound.

Row | Structure (SMILES) | pIC50 (human BTK) | GSH Reactivity GSH Conjugate at 60 minutes [2] | AUC ([3]; intravenous 3 mg/kg, free base, read-out: Intravenous AUC) [ng·h/mL] | bioavailability ([3]; oral 10 mg/kg vs intravenous 3 mg/kg) [%] | Cmax ([3]; oral 10 mg/kg, free base) [ng/mL] | AUC ([3]; oral 10 mg/kg, free base, read-out: Oral AUC) [ng·h/mL] | pEC50 (splenocytes) | pEC50 [1]
4 | CC#CC(=O)N(C)[C@H]1C[C@@H](n2nc(-c3ccc(Oc4ccccc4)cc3)c3c(N)ncnc32)C1 [Compound 4] | 9.00 | 8.4 % of total Peaks | – | – | – | – | 9.10 | 8.27
5 | C=CC(=O)N(C)[C@H]1C[C@@H](n2nc(-c3ccc(Oc4ccccc4)cc3)c3c(N)ncnc32)C1 [Compound 5] | 9.15 | 28.9 % of total Peaks | – | – | – | – | 9.30 | 8.72
6 | C=CC(=O)N[C@H]1C[C@@H](n2nc(-c3ccc(Oc4ccccc4)cc3F)c3c(N)ncnc32)C1 [Compound 6] | 8.52 | 12.6 % of total Peaks | – | – | – | – | 9.40 | 8.52
